{
  "source": "patent US20260235789A1",
  "about": "“THERAPEUTIC LENSES FOR USE AS OCULAR BANDAGE AND SIMULTANEOUSLY FOR THE ADMINISTRATION OF EYE DROPS” (EYE PHARMA SPA, priority 2021, published 2026)",
  "system": "Salmonella typhimurium",
  "assay": "Bacterial proliferation assay (inhibition halo on agar plates)",
  "type": "cell-based",
  "conditions": "before vs after passage through the ionic therapeutic contact lenses; 2×10^9/mL bacteria on agar-coated plates; 24 hours; FIG. 4",
  "protocol": "The influence of lens interaction on the antibacterial effect of chloramphenicol was tested with a bacterial challenge using Salmonella typhimurium seeding 2×10^9/mL bacteria on agar-coated plates. An antibiotic disk was inserted in the middle of the plate to verify the inhibition halo around the dish after 24 hours. Both the chloramphenicol eye drops and the liquid suspending the therapeutic lenses for storage were tested. The antibacterial capacity of chloramphenicol was comparatively tested before and after the passage through the ionic therapeutic contact lenses according to the invention. The diameter of the clear halo around the chloramphenicol depot area (central white spot) was not different.",
  "data": [
    {"smiles": "O=C(N[C@H](CO)[C@H](O)c1ccc([N+](=O)[O-])cc1)C(Cl)Cl", "note": "[chloramphenicol]", "values": [
      {"measurement": "diameter of the clear halo around the chloramphenicol depot area", "result": "not different"}
    ]}
  ]
}
